Experiment: Triple helix self-assembly by CD spectroscopy
Type: physicochemical
Procedure: Circular dichroism (CD) spectroscopy was used to evaluate self-assembly of the triple helix for each of our collagen model peptides. […] The data from CD thermal denaturation experiments were fitted to a two-state model, as previously described.
Purified peptides were incubated in PBS buffer for at least 24 hours. […] The data from CD thermal denaturation experiments were fitted to a two-state model as previously described.^12,13 The melting temperatures (Tm), at which 50% of the triple helix unfolds, are listed next to the peptides in FIG. 11.
Resulting peptide 5 was purified by HPLC and incubated at a concentration of 0.2 mM in PBS buffer (pH 7) for 24 h.
Multiple aza-Proline residues: Finally, we determined the number of stereodynamic center (i.e., AzProHypGly trimer) that can be incorporated into a collagen model peptide without perturbing the triple-helix formation.

triple helix formation / self-assembly: does not
Substance: (GPO)4
